Results from patent publication US6995173B2, “Methods for the treatment of central nervous system disorders in certain patient groups” (R.T. Alamo Ventures I, LLC, priority 2001, dated 2006).

Target: T1, PDE6 partially purified from bovine retinal rod and activated by trypsin (Bos taurus, UniProt P11541+P23439)
T1 construct: from tissue; host or cells: bovine retinal rod
T1 sequence (P11541 2-856 limits assumed): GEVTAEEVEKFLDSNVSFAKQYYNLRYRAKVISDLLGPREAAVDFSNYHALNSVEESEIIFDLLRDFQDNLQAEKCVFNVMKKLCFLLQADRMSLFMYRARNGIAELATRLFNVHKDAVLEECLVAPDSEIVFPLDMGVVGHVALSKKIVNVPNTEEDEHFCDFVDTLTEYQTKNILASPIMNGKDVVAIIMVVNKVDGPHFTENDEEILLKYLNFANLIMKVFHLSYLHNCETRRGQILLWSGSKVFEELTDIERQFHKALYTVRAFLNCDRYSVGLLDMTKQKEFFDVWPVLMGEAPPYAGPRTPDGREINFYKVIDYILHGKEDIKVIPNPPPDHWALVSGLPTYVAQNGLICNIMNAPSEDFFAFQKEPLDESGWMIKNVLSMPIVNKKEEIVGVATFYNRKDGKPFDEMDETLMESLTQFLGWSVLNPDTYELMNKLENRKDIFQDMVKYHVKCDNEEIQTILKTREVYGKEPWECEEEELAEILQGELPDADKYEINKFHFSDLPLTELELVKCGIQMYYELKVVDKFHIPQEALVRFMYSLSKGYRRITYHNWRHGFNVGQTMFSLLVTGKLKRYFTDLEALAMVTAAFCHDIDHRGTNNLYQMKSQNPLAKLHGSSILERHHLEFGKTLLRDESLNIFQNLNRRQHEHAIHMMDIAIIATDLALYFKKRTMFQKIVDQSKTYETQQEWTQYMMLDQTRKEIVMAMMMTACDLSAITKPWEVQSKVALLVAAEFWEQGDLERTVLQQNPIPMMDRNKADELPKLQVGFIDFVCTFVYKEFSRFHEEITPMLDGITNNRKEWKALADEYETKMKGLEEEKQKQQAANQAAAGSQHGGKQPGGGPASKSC
T1 sequence (P23439 2-850 limits assumed): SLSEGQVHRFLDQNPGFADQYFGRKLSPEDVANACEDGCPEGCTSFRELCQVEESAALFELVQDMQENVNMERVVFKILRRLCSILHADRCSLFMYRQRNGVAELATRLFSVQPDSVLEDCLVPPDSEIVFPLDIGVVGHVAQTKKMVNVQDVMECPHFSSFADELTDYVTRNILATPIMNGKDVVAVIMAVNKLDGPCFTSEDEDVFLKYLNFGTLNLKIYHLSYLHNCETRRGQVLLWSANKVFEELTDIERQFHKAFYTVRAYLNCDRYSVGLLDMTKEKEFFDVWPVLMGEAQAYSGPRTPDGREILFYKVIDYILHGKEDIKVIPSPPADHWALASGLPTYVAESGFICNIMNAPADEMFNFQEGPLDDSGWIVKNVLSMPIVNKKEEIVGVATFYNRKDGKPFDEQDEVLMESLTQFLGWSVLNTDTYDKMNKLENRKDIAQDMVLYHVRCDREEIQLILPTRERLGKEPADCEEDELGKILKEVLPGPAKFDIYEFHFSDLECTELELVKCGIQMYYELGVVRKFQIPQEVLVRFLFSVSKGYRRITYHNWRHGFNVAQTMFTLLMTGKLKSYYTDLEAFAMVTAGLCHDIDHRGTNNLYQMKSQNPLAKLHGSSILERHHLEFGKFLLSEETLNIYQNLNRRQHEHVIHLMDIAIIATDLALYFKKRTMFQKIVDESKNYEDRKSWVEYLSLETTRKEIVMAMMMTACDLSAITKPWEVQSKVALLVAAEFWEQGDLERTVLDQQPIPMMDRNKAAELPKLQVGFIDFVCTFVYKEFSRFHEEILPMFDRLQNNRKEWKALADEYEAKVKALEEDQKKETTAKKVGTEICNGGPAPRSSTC
Test: PDE6 biochemical enzyme assay ([3H]cGMP hydrolysis, scintillation counting)
Conditions: Example 2; versus Viagra 0.3 μM

times more compound on a molar basis than Viagra for such levels of PDE6 inhibition: more than 300 times
Compound: Cn1cc([S+](C)[O-])c(=O)c2ccc(F)cc21 (racemic) [Flosequinan, 7-fluoro-1-methyl-3-methylsulphinyl-4-quinolone]
